Reference: patent US10821115B2, “Compounds that inhibit Mcl-1 protein” (priority 2017, dated 2020)
Where two headings read alike, the source gives them in different places.

Key:
[1] = target: recombinant human Mcl-1 (residues 171-327) / Bim interaction (Homo sapiens (Human), UniProt Q07820); assay: biochemical; format: binding; conditions: read-out: Mcl-1 HTRF IC50
Procedure: The inhibition of the Mcl-1/Bim interaction was measured using a time-resolved fluorescence resonance energy transfer (TR-FRET) assay. […] The TR-FRET assay was conducted in a 384-well white OptiPlate™ (PerkinElmer, Waltham, Mass.) in a total volume of 40 μL. The reaction mixture contained 0.1 nM Mcl-1(171-327), 0.05 nM biotin-Bim (51-76), 0.05 nM LANCE® Eu-W1024 Anti-6×His (PerkinElmer), 0.072 nM Streptavidin-Xlent (Cisbio, Bedford, Mass.), and serially diluted test compounds in the binding buffer of 20 mM Hepes, pH 7.5, 150 mM NaCl, 0.016 mM Brij®35, and 1 mM dithiothreitol. Test compounds were pre-incubated with Mcl-1(171-327) and biotin-Bim (51-76) for 60 min before addition of the detection mixture (LANCE® Eu-W1024 Anti-6×His and Streptavidin-Xlent). The reaction plates were further incubated overnight and then were read on an Envision® multimode reader (PerkinElmer). Fluorescence signals were measured at 620 nm (40-nm bandwidth) and 665 nm (7.5-nm bandwidth) with a 60 is delay after excitation at 320 nm (75-nm bandwidth). The signal ratio at 665/620 nm corresponded to the Mcl-1/Bim interaction and was used in all data analyses. The IC50 values of test compounds were determined from duplicate data by analyzing competition curves using a four-parameter sigmoidal model in GraphPad Prism (GraphPad Software, San Diego, Calif.) or in Genedata Screener® (Genedata, Basel, Switzerland).

[2] = system: human multiple myeloma cell line, OPM-2; assay: Cell viability assay (OPM-2 10 FBS), CellTiter-Glo; format: cell-based
Method in brief: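 Steps: plate cells at 3000/well in 10% FBS growth medium, add serially diluted compound, incubate 16 h at 37 °C with 5% CO2, add detection reagent and read luminescence after 25 min. A 4-parameter logistic model gives IC50.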

[3] = TR-FRET, Mcl-1(171-327) / biotin-Bim (51-76)
[4] = Homo sapiens, OPM-2, 16 h, read-out: OPM-2 10% FBS IC50 IP, OPM-2 cells, 10% FBS, 16 h, CellTiter-Glo
[5] = 0.1 nM Mcl-1(171-327), 0.05 nM biotin-Bim (51-76)
[6] = Homo sapiens, OPM-2, 16 h, read-out: OPM-2 10% FBS IC50 IP, OPM-2 cells, 10% FBS, 16 h incubation

recombinant human Mcl-1 (residues 171-327) / Bim interaction, sequence (Q07820 171-327): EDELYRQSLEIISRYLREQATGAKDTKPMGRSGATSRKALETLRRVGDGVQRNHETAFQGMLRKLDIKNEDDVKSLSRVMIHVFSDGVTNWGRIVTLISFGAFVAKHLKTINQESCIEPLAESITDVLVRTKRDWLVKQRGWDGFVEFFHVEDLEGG

| Structure (SMILES) | IC50 [1, 3] [nM] | IC50 [2, 4] [nM] | IC50 [1, 5] [nM] | IC50 [2, 6] [nM] | IC50 ([2]; read-out: OPM-2 10% FBS IC50 IP, OPM-2 cells, 10% FBS, 16 h, CellTiter-Glo) [nM] |
| --- | --- | --- | --- | --- | --- |
| CO[C@@]1(CC2=NCCO2)/C=C/C[C@H](C)[C@@H](C)S(=O)(=O)NC(=O)c2ccc3c(c2)N(C[C@@H]2CC[C@H]21)C[C@@]1(CCCc2cc(Cl)ccc21)CO3 [Example 100500, (1S,3′R,6′R,7′S,8′E,11′S,12′R)-6-chloro-7′-(4,5-dihydro-1,3-oxazol-2-ylmethyl)-7′-methoxy-11′,12′-dimethyl-3,4-dihydro-2H,15′H-spiro[naphthalene-1,22′-[20]oxa[13]thia[1,14]diazatetracyclo [14.7.2.0~3,6~.0~19,24~]pentacosa[8,16,18,24]tetraen]-15′-one 13′,13′-dioxide] | 0.049 | 71 | – | – | – |
| COCCN(CCOC)C1CN(C[C@]2(OC)/C=C/C[C@H](C)[C@@H](C)S(=O)(=O)NC(=O)c3ccc4c(c3)N(C[C@@H]3CC[C@H]32)C[C@@]2(CCCc3cc(Cl)ccc32)CO4)C1 [Example 344, (1S,3′R,6′R,7′S,8′E,11′S,12′R)-7′-((3-(bis(2-methoxyethyl)amino)-1-azetidinyl)methyl)-6-chloro-7′-methoxy-11′,12′-dimethyl-3,4-dihydro-2H,15′H-spiro[naphthalene-1,22′-[20]oxa[13]thia[1,14]diazatetracyclo [14.7.2.0~3,6~.0~19,24~]pentacosa[8,16,18,24]tetraen]-15′-one 13′,13′-dioxide] | – | – | 0.116 | 57 | – |
| CCOP(=O)(OCC)C(F)(F)[C@]1(O)/C=C/C[C@H](C)[C@@H](C)S(=O)(=O)NC(=O)c2ccc3c(c2)N(C[C@@H]2CC[C@H]21)C[C@@]1(CCCc2cc(Cl)ccc21)CO3 [Example 100068, diethyl (((1S,3′R,6′R,7′S,8′E,11′S,12′R)-6-chloro-7′-hydroxy-11′,12′-dimethyl-13′,13′-dioxido-15′-oxo-3,4-dihydro-2H-spiro[naphthalene-1,22′-[20]oxa[13]thia[1,14]diazatetracyclo [14.7.2.0~3,6~.0~19,24~]pentacosa[8,16,18,24]tetraen]-7′-yl)(difluoro)methyl)phosphonate] | 4.41 | – | – | – | 765 |
| CO[C@@]1(CN2CCN(Cc3ncon3)CC2)/C=C/C[C@H](C)[C@@H](C)S(=O)(=O)NC(=O)c2ccc3c(c2)N(C[C@@H]2CC[C@H]21)C[C@@]1(CCCc2cc(Cl)ccc21)CO3 [Example 321, (1S,3′R,6′R,7′S,8′E,11′S,12′R)-6-chloro-7′-methoxy-11′,12′-climethyl-7′-((4-(1,2,4-oxadiazol-3-ylmethyl)-1-piperazinyl)methyl)-3,4-dihydro-2H,15′H-spiro[naphthalene-1,22′-[20]oxa[13]thia[1,14]diazatetracyclo [14.7.2.0~3,6~.0~19,24~]pentacosa[8,16,18,24]tetraen]-15′-one 13′,13′-dioxide] | – | – | 0.145 | 92 | – |
| CO[C@@]1(C(C)(C)O)/C=C/C[C@H](C)[C@@H](C)S(=O)(=O)NC(=O)c2ccc3c(c2)N(C[C@@H]2CC[C@H]21)C[C@@]1(CCCc2cc(Cl)ccc21)CO3 [Example 100404, (1S,3′R,6′R,7′S,8′E,11′S,12′R)-6-chloro-7′-(2-hydroxy-2-propanyl)-7′-methoxy-11′,12′-dimethyl-3,4-dihydro-2H,15′H-spiro[naphthalene-1,22′-[20]oxa[13]thia[1,14]diazatetracyclo [14.7.2.0~3,6~.0~19,24~]pentacosa[8,16,18,24]tetraen]-15′-one 13′,13′-dioxide] | 2.55 | 8150 | – | – | – |
| CO[C@@]1(CC(=O)N(C)C)CCC[C@H](C)[C@@H](C)S(=O)(=O)NC(=O)c2ccc3c(c2)N(C[C@@H]2CC[C@H]21)C[C@@]1(CCCc2cc(Cl)ccc21)CO3 [Example 100176, 2-((1S,3′R,6′R,7′R,11′S,12′R)-6-chloro-7′-methoxy-11′,12′-dimethyl-13′,13′-dioxido-15′-oxo-3,4-dihydro-2H-spiro[naphthalene-1,22′-[20]oxa[13]thia[1,14]diazatetracyclo [14.7.2.0~3,6~.0~19,24~]pentacosa[16,18,24]trien]-7′-yl)-N,N-dimethylacetamide] | 0.48 | 603 | – | – | – |
| C#C[C@]1(O)/C=C/C[C@H](C)[C@@H](C)S(=O)(=O)NC(=O)c2ccc3c(c2)N(C[C@@H]2CC[C@H]21)C[C@@]1(CCCc2cc(Cl)ccc21)CO3 [Example 100244, (1S,3′R,6′R,7′S,8′E,11′S,12′R)-6-chloro-7′-ethynyl-7′-hydroxy-11′,12′-dimethyl-3,4-dihydro-2H,15′H-spiro[naphthalene-1,22′-[20]oxa[13]thia[1,14]diazatetracyclo [14.7.2.0~3,6~.0~19,24~]pentacosa[8,16,18,24]tetraen]-15′-one 13′,13′-dioxide] | 0.182 | 49 | – | – | – |
| C[C@@H]1[C@@H](C)C[C@@H](N(C)C)C[C@](C)(O)[C@@H]2CC[C@H]2CN2C[C@@]3(CCCc4cc(Cl)ccc43)COc3ccc(cc32)C(=O)NS1(=O)=O [Example 100063, (1S,3′R,6′R,7′S,9′R,11′S,12′R)-6-chloro-9′-(dimethylamino)-7′-hydroxy-7′,11′,12′-trimethyl-3,4-dihydro-2H,15′H-spiro[naphthalene-1,22′-[20]oxa[13]thia[1,14]diazatetracyclo [14.7.2.0~3,6~.0~19,24~]pentacosa[16,18,24]trien]-15′-one 13′,13′-dioxide] | 2.32 | 2260 | – | – | – |
| CO[C@@]1(CN2CCN(C(=O)N(C)C)CC2)/C=C/C[C@H](C)[C@@H](C)S(=O)(=O)NC(=O)c2ccc3c(c2)N(C[C@@H]2CC[C@H]21)C[C@@]1(CCCc2cc(Cl)ccc21)CO3 [Example 259, 4-(((1S,3′R,6′R,7′S,8′E,11′S, 12′R)-6-chloro-7′-methoxy-11′,12′-dimethyl-13′,13′-dioxido-15′-oxo-3,4-dihydro-2H-spiro[naphthalene-1,22′-[20]oxa[13]thia[1,14]diazatetracyclo [14.7.2.0~3,6~.0~19,24~]pentacosa[8,16,18,24]tetraen]-7′-yl)methyl)-N,N-dimethyl-1-piperazinecarboxamide] | – | – | 0.23 | 254 | – |
| COC(=O)[C@@H](C)NC(=O)C[C@]1(OC)/C=C/C[C@H](C)[C@@H](C)S(=O)(=O)NC(=O)c2ccc3c(c2)N(C[C@@H]2CC[C@H]21)C[C@@]1(CCCc2cc(Cl)ccc21)CO3 [Example 100528, methyl N-(((1S,3′R,6′R,7′S,8′E,11′S,12′R)-6-chloro-7′-methoxy-11′,12′-dimethyl-13′,13′-dioxido-15′-oxo-3,4-dihydro-2H-spiro[naphthalene-1,22′-[20]oxa[13]thia[1,14]diazatetracyclo [14.7.2.0~3,6~.0~19,24~]pentacosa[8,16,18,24]tetraen]-7′-yl)acetyl)-D-alaninate] | 0.138 | 257 | – | – | – |
| C[C@@H]1[C@@H](C)C/C=C/[C@@](O)(C#CCCO)[C@@H]2CC[C@H]2CN2C[C@@]3(CCCc4cc(Cl)ccc43)COc3ccc(cc32)C(=O)NS1(=O)=O [Example 100422, (1S,3′R,6′R,7′S,8′E,11′S,12′R)-6-chloro-7′-hydroxy-7′-(4-hydroxy-1-butyn-1-yl)-11′,12′-dimethyl-3,4-dihydro-2H,15′H-spiro[naphthalene-1,22′-[20]oxa[13]thia[1,14]diazatetracyclo [14.7.2.0~3,6~.0~19,24~]pentacosa[8,16,18,24]tetraen]-15′-one 13′,13′-dioxide] | 0.174 | 182 | – | – | – |
| C[C@@H]1[C@@H](C)CCC[C@@]2(OCCO[C@H]2C=O)[C@@H]2CC[C@H]2CN2C[C@@]3(CCCc4cc(Cl)ccc43)COc3ccc(cc32)C(=O)NS1(=O)=O (single isomer, unassigned) [Example 100495] | 0.462 | 539 | – | – | – |
| COCCOCCN1CCN(C[C@]2(OC)/C=C/C[C@H](C)[C@@H](C)S(=O)(=O)NC(=O)c3ccc4c(c3)N(C[C@@H]3CC[C@H]32)C[C@@]2(CCCc3cc(Cl)ccc32)CO4)CC1 [Example 332, (1S,3′R,6′R,7′S,8′E,11′S,12′R)-6-chloro-7′-methoxy-7′-((4-(2-(2-methoxyethoxy)ethyl)-1-piperazinyl)methyl)-11′,12′-dimethyl-3,4-dihydro-2H,15′H-spiro[naphthalene-1,22′-[20]oxa[13]thia[1,14]diazatetracyclo [14.7.2.0~3,6~.0~19,24~]pentacosa[8,16,18,24]tetraen]-15′-one 13′,13′-dioxide] | – | – | 0.096 | 89 | – |
| CO[C@@]1(C)/C=C/C[C@H](C)[C@@H](CCO)S(=O)(=O)NC(=O)c2ccc3c(c2)N(C[C@@H]2CC[C@H]21)C[C@@]1(CCCc2cc(Cl)ccc21)CO3 (single isomer, unassigned) [Example 100593] | 0.464 | 215 | – | – | – |
| CO[C@@]1(CCN2CCN(C)C(=O)C2)/C=C/C[C@H](C)[C@@H](C)S(=O)(=O)NC(=O)c2ccc3c(c2)N(C[C@@H]2CC[C@H]21)C[C@@]1(CCCc2cc(Cl)ccc21)CO3 [Example 100430, (1S,3′R,6′R,7′S,8′E,11′S,12′R)-6-chloro-7′-methoxy-11′,12′-dimethyl-7′-(2-(4-methyl-3-oxo-1-piperazinyl)ethyl)-3,4-dihydro-2H,15′H-spiro[naphthalene-1,22′-[20]oxa[13]thia[1,14]diazatetracyclo [14.7.2.0~3,6~.0~19,24~]pentacosa[8,16,18,24]tetraen]-15′-one 13′,13′-dioxide] | 0.057 | 358 | – | – | – |
